The values below come from ChEMBL document CHEMBL3045019, “Antioxidant and antimicrobial studies of novel N-(substituted-2-chloroquinolin-3-yl)methylidene-4-hydroxy-2H-1,2-benzothiazine-3-carbohydrazides 1,1-dioxides” (2012).

In brackets after ≈: the same amount, converted by molar mass.

Type in all cases: functional
One assay has as its system Fusarium oxysporum. The assay is described as follows: Antifungal activity against Fusarium oxysporum after 3 to 5 days by agar dilution assay.
The test system of another assay is Aspergillus niger. Nature of the assay: Antifungal activity against Aspergillus niger after 3 to 5 days by agar dilution assay. (Agar dilution tests growth on a series of plates holding different concentrations.)
In the next assay the test system is Aspergillus flavus. The assay is described as follows: Antifungal activity against Aspergillus flavus after 3 to 5 days by agar dilution assay.
A further assay relates to Siminovitchia fortis. The assay is described as follows: Antibacterial activity against Bacillus fortis after 24 hr by agar dilution assay.
In another assay the test system is Bacillus thuringiensis. Nature of the assay: Antibacterial activity against Bacillus thuringiensis after 24 hr by agar dilution assay.
In the next assay the test system is Bacillus subtilis. The assay is described as follows: Antibacterial activity against Bacillus subtilis after 24 hr by agar dilution assay.
Assay [1] deals with Salmonella enterica subsp. enterica serovar Gallinarum. Nature of the assay: Antibacterial activity against Salmonella enterica subsp. enterica serovar Gallinarum after 24 hr by agar dilution assay.
The subject of a further assay is Enterobacter cloacae. The assay is described as follows: Antibacterial activity against Enterobacter cloacae after 24 hr by agar dilution assay.
A further assay has as its system Escherichia coli. Nature of the assay: Antibacterial activity against Escherichia coli after 24 hr by agar dilution assay.
A short description of assay [2]: Antioxidant activity assessed as superoxide radical scavenging activity by NBT reduction assay relative to control. Also noted: concentration or dose not given beside the values.

In the case of `COc1ccc2cc(/C=N/NC(=O)C3=C(O)c4ccccc4S(=O)(=O)N3)c(Cl)nc2c1`, the MIC in the assay with Fusarium oxysporum was above 200 µg/mL; with Aspergillus niger, above 200 µg/mL; against Aspergillus flavus, above 200 µg/mL; in the assay with Siminovitchia fortis, above 100 µg/mL; against Bacillus thuringiensis it was above 100 µg/mL; in the assay with Bacillus subtilis it was above 1000 µg/mL. For the same molecule, the MIC (in assay [1]; in the assay on Enterobacter cloacae; against Escherichia coli) was above 1000 µg/mL each time. Also, the Activity in assay [2] worked out at 72.1%.

In the case of `Cc1ccc2nc(Cl)c(/C=N/NC(=O)C3=C(O)c4ccccc4S(=O)(=O)N3C)cc2c1`, the MIC against Fusarium oxysporum, in the assay with Aspergillus niger, against Aspergillus flavus, against Siminovitchia fortis, in the assay on Bacillus thuringiensis and against Bacillus subtilis was above 1000 µg/mL in each case. Also, the minimal inhibitory concentration (MIC) (in assay [1]; with Enterobacter cloacae; in the assay on Escherichia coli) was above 1000 µg/mL in each case. In addition, the Activity in assay [2] was found to be 51.2%.

`CCCOC(=O)c1cc(O)c(O)c(O)c1`: the Activity in assay [2] worked out at 91.3%.

As to `Cc1cccc2cc(/C=N/NC(=O)C3=C(O)c4ccccc4S(=O)(=O)N3C)c(Cl)nc12`, the MIC against Fusarium oxysporum, in the assay with Aspergillus niger, against Aspergillus flavus, in the assay with Siminovitchia fortis, against Bacillus thuringiensis and with Bacillus subtilis was above 1000 µg/mL in each case. The minimal inhibitory concentration (MIC) (in assay [1]; against Enterobacter cloacae; in the assay on Escherichia coli) was above 1000 µg/mL in each case. Moreover, in [2], the Activity was 61.3%.

`COc1ccc2nc(Cl)c(/C=N/NC(=O)C3=C(O)c4ccccc4S(=O)(=O)N3)cc2c1`: the MIC against Fusarium oxysporum was above 500 µg/mL; in the assay on Aspergillus niger, above 500 µg/mL; against Aspergillus flavus, above 500 µg/mL; in the assay on Siminovitchia fortis, above 100 µg/mL; in the assay on Bacillus thuringiensis, above 100 µg/mL; against Bacillus subtilis it was above 100 µg/mL. The MIC (in assay [1]; with Enterobacter cloacae; in the assay with Escherichia coli) was above 1000 µg/mL each time. Further, in assay [2], the Activity was 69.7%.

With `COc1ccc2cc(/C=N/NC(=O)C3=C(O)c4ccccc4S(=O)(=O)N3C)c(Cl)nc2c1`, the MIC is above 1000 µg/mL in the assay with Fusarium oxysporum; above 1000 µg/mL with Aspergillus niger; above 1000 µg/mL against Aspergillus flavus; above 100 µg/mL against Siminovitchia fortis; above 100 µg/mL with Bacillus thuringiensis; above 100 µg/mL in the assay with Bacillus subtilis. Besides, the MIC (in [1]; against Enterobacter cloacae; in the assay on Escherichia coli) was above 1000 µg/mL each time. Also, in [2], the Activity turned out to be 65.1%.

Take `COc1ccc2nc(Cl)c(/C=N/NC(=O)C3=C(O)c4ccccc4S(=O)(=O)N3C)cc2c1`: the MIC in the assay with Fusarium oxysporum was above 100 µg/mL; against Aspergillus niger, above 100 µg/mL; with Aspergillus flavus it was above 100 µg/mL; in the assay with Siminovitchia fortis, above 200 µg/mL; against Bacillus thuringiensis, above 200 µg/mL; against Bacillus subtilis, above 200 µg/mL. Further, the MIC (in [1]; in the assay with Enterobacter cloacae; with Escherichia coli) was above 1000 µg/mL throughout. Also, in [2], the Activity is 67.2%.

Turning to `CC1(C)S[C@@H]2[C@H](NC(=O)[C@H](N)c3ccc(O)cc3)C(=O)N2[C@H]1C(=O)O` [AMOXICILLIN], the MIC against Fusarium oxysporum was 2 µg/mL (≈ 5.47 µM); with Aspergillus niger it was 2 µg/mL (≈ 5.47 µM); in the assay with Aspergillus flavus, 2 µg/mL (≈ 5.47 µM); against Siminovitchia fortis, 2 µg/mL (≈ 5.47 µM); in the assay on Bacillus thuringiensis, 6 µg/mL (≈ 16.4 µM); with Bacillus subtilis, 3 µg/mL (≈ 8.21 µM). Moreover, the MIC (in assay [1]; with Enterobacter cloacae; in the assay on Escherichia coli) was 2 µg/mL (≈ 5.47 µM) each time.

For the molecule `Cc1ccc2cc(/C=N/NC(=O)C3=C(O)c4ccccc4S(=O)(=O)N3C)c(Cl)nc2c1`, the minimal inhibitory concentration (MIC) against Fusarium oxysporum was above 1000 µg/mL; against Aspergillus niger, above 1000 µg/mL; in the assay with Aspergillus flavus it was above 1000 µg/mL; against Siminovitchia fortis it was above 100 µg/mL; in the assay on Bacillus thuringiensis, above 100 µg/mL; against Bacillus subtilis, above 100 µg/mL. The MIC (in [1]; in the assay on Enterobacter cloacae; against Escherichia coli) was above 1000 µg/mL in each case. The Activity in [2] is 51.9%.

As to `Cc1ccc2cc(/C=N/NC(=O)C3=C(O)c4ccccc4S(=O)(=O)N3)c(Cl)nc2c1`, the MIC in the assay with Fusarium oxysporum, in the assay on Aspergillus niger, in the assay on Aspergillus flavus, with Siminovitchia fortis, in the assay with Bacillus thuringiensis and against Bacillus subtilis was above 1000 µg/mL throughout. Also, the MIC (in [1]; with Enterobacter cloacae; in the assay with Escherichia coli) was above 1000 µg/mL throughout. Further, in [2], the Activity is 49.1%.

On to `Cc1cccc2cc(/C=N/NC(=O)C3=C(O)c4ccccc4S(=O)(=O)N3)c(Cl)nc12`, for which the minimal inhibitory concentration (MIC) with Fusarium oxysporum, with Aspergillus niger, with Aspergillus flavus, in the assay with Siminovitchia fortis, against Bacillus thuringiensis and against Bacillus subtilis was above 1000 µg/mL in each case. Besides, the minimal inhibitory concentration (MIC) (in assay [1]; against Enterobacter cloacae; in the assay with Escherichia coli) was above 1000 µg/mL each time. Also, in assay [2], the Activity was determined as 52.5%.

Take `CN[C@@H]1[C@H](O[C@H]2[C@H](O[C@H]3[C@H](O)[C@@H](O)[C@H](N=C(N)N)[C@@H](O)[C@@H]3N=C(N)N)O[C@@H](C)[C@]2(O)C=O)O[C@@H](CO)[C@H](O)[C@H]1O` [STREPTOMYCIN]: the minimum inhibitory concentration (MIC) with Fusarium oxysporum worked out at 1 µg/mL (≈ 1.72 µM); with Aspergillus niger, 1 µg/mL (≈ 1.72 µM); in the assay on Aspergillus flavus, 0.7 µg/mL (≈ 1.2 µM); in the assay with Siminovitchia fortis it was 0.9 µg/mL (≈ 1.55 µM); against Bacillus thuringiensis, 3 µg/mL (≈ 5.16 µM); in the assay with Bacillus subtilis it was 1 µg/mL (≈ 1.72 µM). Further, the MIC in assay [1] was 1 µg/mL (≈ 1.72 µM); with Enterobacter cloacae, 1 µg/mL (≈ 1.72 µM); against Escherichia coli it was 0.7 µg/mL (≈ 1.2 µM).

Regarding `Cc1ccc2nc(Cl)c(/C=N/NC(=O)C3=C(O)c4ccccc4S(=O)(=O)N3)cc2c1`, the MIC in the assay with Fusarium oxysporum, in the assay with Aspergillus niger, in the assay on Aspergillus flavus, in the assay on Siminovitchia fortis, in the assay on Bacillus thuringiensis and with Bacillus subtilis was above 100 µg/mL in each case. For the same molecule, the MIC (in assay [1]; with Enterobacter cloacae; in the assay on Escherichia coli) was above 1000 µg/mL each time. Moreover, the Activity in assay [2] stood at 51.8%.

As a reminder, the MIC is the lowest concentration that inhibits growth of the organism.
